Experimental data: US7700616B2, “Compounds and amyloid probes thereof for therapeutic and imaging uses” (Molecular Neuroimaging, LLC., priority 2006, dated 2010)

What was measured:
[1] = Lipophilicity (LogD); format: physicochemical; details: pH 7.4; obtained amyloid probe
Method: (§1) The labeling of the compounds of the invention was carried out under standard conditions (Na^123/125I, oxidizer, acidic medium) at ambient temperature. Radiochemical yields averaged 35-90%. The labeled compounds were readily purified by reverse-phase HPLC, and their radiochemical purity exceeded 95%.

[2] = Protein binding (free ligand fraction in plasma); format: in vitro ADME; details: obtained amyloid probe
Method: as §1

CN(C)c1ccc(-n2nc3ccc(I)cc3n2)cc1 [MNI-187]
logD [1]: 2.7
free ligand fraction in plasma [2]: 4%
